Measurements: publication PMC8710297, “Identification of potent SENP1 inhibitors that inactivate SENP1/JAK2/STAT signaling pathway and overcome platinum drug resistance in ovarian cancer” (Clinical and Translational Medicine, 2021)
Values joined by “and” are separate entries in the source; they are usually repeats but may differ in a detail not shown here. Identical values can stand only once.

Tests used:
SENP1 [1] = target: T1, SENP1 (Homo sapiens, UniProt Q9P0U3); test: In vitro deSUMOylation assay (SUMOylated His-JAK2 + recombinant GST-SENP1); format: biochemical; conditions: read-out: SENP1 inhibition in vitro IC50
T1 sequence (Q9P0U3 1-644): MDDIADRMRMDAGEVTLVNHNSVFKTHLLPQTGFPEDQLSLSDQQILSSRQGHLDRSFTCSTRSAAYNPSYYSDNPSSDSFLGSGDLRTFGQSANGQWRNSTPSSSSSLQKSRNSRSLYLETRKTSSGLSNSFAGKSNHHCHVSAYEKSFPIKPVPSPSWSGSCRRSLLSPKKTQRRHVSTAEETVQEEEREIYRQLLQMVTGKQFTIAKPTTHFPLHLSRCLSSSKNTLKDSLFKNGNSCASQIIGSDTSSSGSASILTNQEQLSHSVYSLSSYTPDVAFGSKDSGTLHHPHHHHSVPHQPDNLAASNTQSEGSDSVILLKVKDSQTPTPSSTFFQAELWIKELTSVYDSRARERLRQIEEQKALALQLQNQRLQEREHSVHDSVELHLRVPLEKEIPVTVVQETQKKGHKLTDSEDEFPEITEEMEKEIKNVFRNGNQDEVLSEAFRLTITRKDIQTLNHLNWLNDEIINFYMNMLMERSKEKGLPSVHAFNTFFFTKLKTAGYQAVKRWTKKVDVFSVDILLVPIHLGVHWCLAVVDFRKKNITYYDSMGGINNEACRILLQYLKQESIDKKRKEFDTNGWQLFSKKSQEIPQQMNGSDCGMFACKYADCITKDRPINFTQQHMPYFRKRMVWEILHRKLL
Description: (A) Collection of Momordin Ic (Mc) natural compound analogues. […] Cell proliferation was determined by the sulforhodamine B (SRB) assay. […] IGROV1 CR cells were incubated with Mc at indicated concentrations for 48 h and then harvested for Western blot for indicated proteins. […] IGROV1 CR cells were incubated with UA and then treated as in C. […] Intensity of SUMOylated JAK2 was measured by Quantity One software. […] Recombinant His‐JAK2 was SUMOylated by in vitro SUMOylation assay, and then SUMOylated JAK2 proteins were incubated with or without recombinant GST‐SENP1 together with Mc for 3 h. […] In vitro assay was performed as in (F). […]

SENP1 [2] = target: T1, SENP1; test: SENP1 activity in cells (SUMOylated JAK2, Western blot quantification); format: cell-based; parameters: endogenous in cells; host or cells: IGROV1 CR cells; conditions: IGROV1 CR cells, 48 h
Description: (A) Collection of Momordin Ic (Mc) natural compound analogues. […] Cell proliferation was determined by the sulforhodamine B (SRB) assay. […] IGROV1 CR cells were incubated with Mc at indicated concentrations for 48 h and then harvested for Western blot for indicated proteins. […] IGROV1 CR cells were incubated with UA and then treated as in C. […] Intensity of SUMOylated JAK2 was measured by Quantity One software. […] Recombinant His‐JAK2 was SUMOylated by in vitro SUMOylation assay, and then SUMOylated JAK2 proteins were incubated with or without recombinant GST‐SENP1 together with Mc for 3 h. […] In vitro assay was performed as in (F).
(A) Synthesis of UA derivatives. Reagents and conditions: (i) Ac2O, DMAP, Pyridine, r.t.; (ii) Oxalyl chloride, CH2Cl2, r.t., overnight; (iii) amines, TEA, r.t., 0.5–4 h; (iv) NaOH a.q., MeOH/THF, r.t.; (v) amines, MeOH, reflux; (vi) K2CO3, DMF, 60°C. The detail of synthesis was included in supplemental materials. […] (C) IGROV1 CR cells treated with indicated UAMMC9 for 48 h. Cells were then harvested and lysates were resolved on sodium dodecyl sulphate‐polyacrylamide gel electrophoresis, followed by immunoblotting for indicated proteins. (D) Cellular thermal shift assay to examine the interaction of UAMMC9 with SENP1. IGROV1 CR cells were incubated with DMSO or UAMMC9 for 4 h before treatment as in Figure 2A. (E) In vitro thermal shift assay to analyze the interactions of UAMMC9 with purified GST‐SENP1(C603A). Stability of SENP1(C603A) was analyzed by using Western blot against SENP1 antibody. […] Surface of hydrophobic amino acid residues in catalytic cleft was shown in yellow and that of hydrophilic amino acid residues was shown in magenta. Key amino acid residues were highlighted. […] The pictures were generated by Chimera.

[3] = recombinant GST-SENP1, SUMOylated His-JAK2, 3 h
[4] = intensity of SUMOylated JAK2, read-out: SENP1 inhibition in cells IC50

Structure (SMILES)	IC50 (SENP1 [1]; recombinant SENP1, SUMOylated JAK2) [nM]	IC50 (SENP1 [2]; SUMOylated JAK2, read-out: SENP1 activity in cells IC50)	IC50 (SENP1 [1]; [3]) [nM]	IC50 (SENP1 [2]; [4]) [nM]
C[C@H]1[C@H](C)CC[C@]2(C(=O)NCC(=O)N(C)CCO)CC[C@]3(C)C(=CC[C@@H]4[C@@]5(C)CC[C@H](O)C(C)(C)[C@@H]5CC[C@]43C)[C@H]12 [UAMMC9]	196	150 nM and 151 nM	–	–
CC1(C)CC[C@]2(C(=O)O)CC[C@]3(C)C(=CC[C@@H]4[C@@]5(C)CC[C@H](O[C@@H]6O[C@H](C(=O)O)[C@@H](O)[C@H](O[C@@H]7OC[C@@H](O)[C@H](O)[C@H]7O)[C@H]6O)C(C)(C)[C@@H]5CC[C@]43C)[C@@H]2C1 [Mc, Momordin Ιc]	–	–	19900	31800
C[C@H]1[C@H](C)CC[C@]2(C(=O)O)CC[C@]3(C)C(=CC[C@@H]4[C@@]5(C)CC[C@H](O)C(C)(C)[C@@H]5CC[C@]43C)[C@H]12 [UA, ursolic acid, reference compound]	–	–	6.4	240
